Where two headings read alike, the source gives them in different places.
Tests used:
[1] = Test regarding solubility in artificial intestinal juice (FaSSIF); assay type: physicochemical; conditions: after lapsing 0.25 hours; for solubility / solubility at 0.25 h: artificial intestinal juice (FaSSIF); for solubility / solubility per free base: 37° C.; for solubility at 0.25 h: 37 °C, fassif, thermodynamic from solid
Method: About 5 mg of the present compound was weighed in a test tube, a stirrer and 5 mL of an artificial intestinal juice (FaSSIF; Reference 1: Pharmaceutical Research, Vol. 20, pp. 1674-1680, 2003, and Reference 2: Biological & Pharmaceutical Bulletin, Vol. 34, pp. 401-407, 2011) were added in the test tube, and the test tube was then hermetically sealed. The test tube was placed in a solubility test apparatus (Gilson, Quad-Z 215), and stirring was performed at 37° C. and 700 rpm. A part of the liquid in the test tube was collected after lapsing 0.25, 0.5, 1, 3, 6, and 24 hours, respectively. The collected liquid was filtered with a filter, and the filtrate was diluted to 2-fold with acetonitrile. The diluted liquid was centrifuged at 3,000 rpm for 5 minutes. A supernatant after centrifugation was used as a sample solution and calculated for solubility by means of high-performance liquid chromatography.
High-Performance Liquid Chromatography Measurement Conditions

[2] = test system: sodium monoiodoacetate-induced model rats; experiment: Analgesic effect on sodium monoiodoacetate-induced model rats; assay type: in vivo, rat; conditions: MIA rats, day 24
[3] = test system: rat NGF-induced vascular hyper permeability; experiment: Inhibiting effect of rat NGF-induced vascular hyper permeability; assay type: in vivo; conditions: 1 mg/kg oral (as free base)
Method: TrkA-inhibiting activity of the present compound was evaluated in vivo. The present compound dissolved in a medium was orally administered (adminstered volume: 5 mL/kg) to male CD(SD)IGS rats (7- to 9-week old, Charles River Laboratories Japan, Inc.) shaved on the back. A medium was orally administered (adminstered volume: 5 mL/kg) to the control and normal groups. After 12 or 14 hours of administration, 3 μg/mL of an NGF (Mouse 2.5s, Natural, Invitrogen) solution prepared in 0.1% BSA (Sigma-Aldrich)-containing saline was intracutaneously administered (adminstered volume; 50 μL/site) at 3 sites on the back of animals under halothane anesthesia. For the normal group, 0.1% BSA-containing saline was intracutaneously administered (adminstered volume; 50 μL/site) at 3 sites on the back. Immediately after intracutaneous administration, 1% Evans Blue (Tokyo Chemical Industriy Co., Ltd.) dissolved in saline was administered intravenously from tail (adminstered volume: 3 mL/kg). After 10 minutes of administration, the animals were sacrificed by bleeding due to incision of the abdominal aorta. The sites of intracutaneous administration on the back (3 sites) were excised, and the skin samples were respectively transferred to the wells in a 48-well plate (Asahi Glass Co., Ltd.). […] The formamide extraction solution (200 μL) was transferred to a 96-well plate, and the absorbance (wavelength: 620 nm) of Evans Blue extracted in formamide was measured on an absorbance microplate reader (SpectraMAX 190, Molecular Devices Japan, K.K.). Standard samples of Evans Blue dissolved in formamide (0, 0.78, 1.56, 3.13, 6.25, 12.5, 25, and 50 μg/mL) were measured at the same time for the absorbance (wavelength: 620 nm), thereby preparing a calibration curve. Based on the calibration curve and the absorbances of the respective samples, the concentrations of Evans Blue in each sample was calculated. […] The rate of inhibition for rat NGF-induced vascular hyper permeability of the present compound was calculated according to the following Equation 4. […]

[4] = present compound oral twice a day over 10 days, then 3 hours before measurement, dose (0.1, 0.3 or 1 mg/kg) not given
[5] = FaSSIF, salt value converted to the corresponding free base, read-out: solubility per free base
[6] = 14 hours before administration of NGF
[7] = FaSSIF, salt value converted to the corresponding free base, Methanesulfonate
[8] = as the substance itself (salt or free base), Methanesulfonate

CS(=O)(=O)c1ccc(C(F)(F)F)cc1NC(=O)Nc1cnc(Oc2ccc(-c3cc(Cl)cnc3N)cc2)nc1 [Compound (I), 1-{2-[4-(2-amino-5-chloro-3-pyridinyl)phenoxy]-5-pyrimidinyl}-3-[2-(methylsulfonyl)-5-(trifluoromethyl)phenyl]urea] showed a solubility ([1]; as the substance itself (salt or free base)) of 7 µg/mL.
For Nc1ncc(F)cc1-c1ccc(Oc2ncc(NC(=O)Nc3cc(C(F)(F)F)ccc3-c3cccnc3)cn2)cc1 [di(p-toluenesulfonate) of Compound (II), 1-{2-[4-(2-amino-5-fluoropyridin-3-yl)phenoxy]pyrimidin-5-yl}-3-[2-(pyridin-3-yl)-5-(trifluoromethyl)phenyl]urea di(p-toluenesulfonate)], the “percent improvement (right hind limb weight load ratio)” value [2, 4] was “about 53%”, the solubility ([1]; as the substance itself (salt or free base), di(p-toluenesulfonate)) was 99 µg/mL and the solubility at 0.25 h [1, 5] was 61 µg/mL. For the same compound, the “inhibition rate of rat NGF-induced vascular hyper permeability” value (from here on “inhibition rate”) ([3]; 12 hours before administration of NGF) was “about 78%”.
For Nc1ncc(F)cc1-c1ccc(Oc2ncc(NC(=O)Nc3cc(C(F)(F)F)ccc3-c3cccnc3)cn2)cc1 [dibenzenesulfonate of Compound (II), 1-{2-[4-(2-amino-5-fluoropyridin-3-yl)phenoxy]pyrimidin-5-yl}-3-[2-(pyridin-3-yl)-5-(trifluoromethyl)phenyl]urea dibenzenesulfonate], the “solubility per free base” value ([1]; FaSSIF, salt value converted to the corresponding free base, dibenzenesulfonate) was 52 µg/mL and the solubility ([1]; as the substance itself (salt or free base), dibenzenesulfonate) was 81 µg/mL.
In the case of CS(=O)(=O)c1ccc(C(F)(F)F)cc1NC(=O)Nc1cnc(Oc2ccc(-c3cc(Cl)cnc3N)cc2)nc1.Cl [hydrochloride of Compound (I), 1-{2-[4-(2-amino-5-chloro-3-pyridinyl)phenoxy]-5-pyrimidinyl}-3-[2-(methylsulfonyl)-5-(trifluoromethyl)phenyl]urea Hydrochloride], the “percent improvement (right hind limb weight load ratio)” value [2, 4] was “about 54%” and the “inhibition rate” value [3, 6] was “about 100%”.
For CS(=O)(=O)c1ccc(C(F)(F)F)cc1NC(=O)Nc1cnc(Oc2ccc(-c3cc(Cl)cnc3N)cc2)nc1 [methanesulfonate of Compound (I), 1-{2-[4-(2-amino-5-chloro-3-pyridinyl)phenoxy]-5-pyrimidinyl}-3-[2-(methylsulfonyl)-5-(trifluoromethyl)phenyl]urea Methanesulfonate], the “solubility per free base” value [1, 7] was 47 µg/mL and the solubility [1, 8] was 55 µg/mL.
In the case of Nc1ncc(Cl)cc1-c1ccc(Oc2ncc(NC(=O)Nc3cc(C(F)(F)F)ccc3-n3cccn3)cn2)cc1 [methanesulfonate of Compound (III), 1-(2-(1H-pyrazol-1-yl)-5-(trifluoromethyl)phenyl)-3-(2-(4-(2-amino-5-chloropyridin-3-yl)phenoxy)pyrimidin-5-yl)urea Methanesulfonate], the “percent improvement (right hind limb weight load ratio)” value [2, 4] was “about 61%”, the “solubility per free base” value [1, 7] was 45 µg/mL and the solubility [1, 8] was 53 µg/mL. For the same compound, the “inhibition rate” value [3, 6] was “about 97%”.
With CN1CC[C@]23c4c5ccc(O)c4O[C@H]2[C@@H](O)C=C[C@H]3[C@H]1C5 [morphine, reference compound] the “percent improvement (right hind limb weight load ratio)” value ([2]; morphine 3 mg/kg subcutaneous one hour before measurement) was 54%.
For CS(=O)(=O)c1ccc(C(F)(F)F)cc1NC(=O)Nc1cnc(Oc2ccc(-c3cc(Cl)cnc3N)cc2)nc1 [p-toluenesulfonate of Compound (I), 1-{2-[4-(2-amino-5-chloro-3-pyridinyl)phenoxy]-5-pyrimidinyl}-3-[2-(methylsulfonyl)-5-(trifluoromethyl)phenyl]urea p-toluenesulfonate], the solubility ([1]; as the substance itself (salt or free base), p-toluenesulfonate) was 96 µg/mL and the solubility at 0.25 h [1, 5] was 74 µg/mL.
Work on Nc1ncc(Cl)cc1-c1ccc(Oc2ncc(NC(=O)Nc3cc(C(F)(F)F)ccc3-n3cccn3)cn2)cc1 [p-toluenesulfonate of Compound (III), 1-(2-(1H-pyrazol-1-yl)-5-(trifluoromethyl)phenyl)-3-(2-(4-(2-amino-5-chloropyridin-3-yl)phenoxy)pyrimidin-5-yl)urea p-Toluenesulfonate] yielded a solubility at 0.25 h [1, 5] of 42 µg/mL and a solubility at 0.25 h ([1]; as the substance itself (salt or free base), read-out: solubility) of 55 µg/mL.
For COc1cccc(C2(O)CCCCC2CN(C)C)c1 (stereo not drawn) [tramadol, reference compound], the “percent improvement (right hind limb weight load ratio)” value ([2]; tramadol 10 mg/kg subcutaneous one hour before measurement) was 43%.

Reference: patent US10399959B2, “Acid-addition salt of Trk-inhibiting compound” (ONO PHARMACEUTICAL CO., LTD., priority 2014, dated 2019)
